Measured values reported in PubChem BioAssay (NCI).
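Interpolation was linear, between the two tested concentrations surrounding the appropriate level; five concentrations were tested over 48 hours in 96-well plates. TGI marks complete inhibition of growth.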

Test system: P388/ADR leukemia
Assay: NCI tumour cell line growth inhibition, 48 h

O=c1n(CC2CO2)c(=O)n(CC2CO2)c(=O)n1CC1CO1 (stereo unspecified) showed a TGI of 275 µM.
